Tests used:
Assay type in all cases: in vivo
[1] = test system: balloon-injured rat carotid artery; assay: Vascular wall cell cycle and apoptotic nuclei in injured rat carotid artery, flow cytometry (propidium iodide); conditions: 200 μg in pluronic gel suspension, perivascular, seven days post injury
Description: (§1) The delivery vehicle may comprise any suitable device. In the exemplary embodiment, the delivery vehicle comprises silastic tubing as illustrated in FIG. 1. The silastic tubing 300 is about 10 mm long with an outside diameter of about 1.5 mm. The total luminal volume, based upon emperical measurement, is about 20 μL. It is important to note that the silastic tubing 300 may comprise any suitable length. The length of the tubing is determined by the amount of artery resected. The silastic tubing may comprise a notch 302 on one end to facilitate placement thereof over the carotid artery. The silastic tubing is then autoclaved prior to surgery. The silastic tubing is filled with about 20 μL of the pluronic gel comprising a suspension, solution or combination suspension and solution of test agent. The pluronic gel formulation to be encased within the silastic tubing is dispersed into the silastic tubing utilizing a 20 μL adjustable pipette with a sterile tip. The pluronic vehicle or pluronic drug solution remains on ice until immediately before pipetting and dispensing into the silastic tubing.
(§2) The next step in the process comprises the surgical procedure. The rat is anesthetized prior to surgical intervention. The rat may be anesthetized utilizing any number of anesthetizing agents, both inhalational and/or injectable. […]

[2] = test system: balloon-injured rat carotid artery; assay: Neointimal hyperplasia in balloon-injured rat carotid artery, histomorphometric analysis after perivascular delivery
Description: as §1, §2

[3] = test system: balloon-injured rat carotid artery; assay: Cell proliferation in injured rat carotid artery, PCNA immunohistochemistry; conditions: 200 μg in pluronic gel suspension, perivascular, seven days post injury
Description: as §1, §2

Compound	percentage nuclei in the G0/G1 phases [1]	total percentage of apoptotic cells in the injured vessel wall [1]	neointima formation (FIG. 3 slides) ([2]; 200 μg in pluronic gel, perivascular administration)	neointimal formation (FIG. 2) ([2]; perivascular application)	neointimal proliferation (PCNA labeling) [3]
CC(=O)O[C@H]1C(=O)[C@@]2(C)[C@H]([C@H](OC(=O)c3ccccc3)[C@]3(O)C[C@H](OC(=O)[C@H](O)[C@@H](NC(=O)c4ccccc4)c4ccccc4)C(C)=C1C3(C)C)[C@]1(OC(C)=O)CO[C@@H]1C[C@@H]2O [paclitaxel]	increases	increase	substantial-reduction	significantly reduced	significantly reduce
CC[C@@]1(O)C(=O)OCc2c1cc1n(c2=O)Cc2cc3c(CN(C)C)c(O)ccc3nc2-1 [Topotecan]	–	–	–	–	substantially no effect

Source: US20060104903A1, “Model for evaluating the efficacy of locally applied antiproliferatives or other agents on neointimal hyperplasia, immunohistochemical and vascular cell cycle changes in balloon-injured rat carotid arteries” (priority 2004, published 2006)
